Test results reported in the supplement of paper PMC10307832.

Tests used:
Test in all cases: relative viability (nuclei count vs DMSO), 5 days (fraction); higher = more cells survive
[1] = compound: C1=CC=C(C(=C1)C2=CC=C(C=C2)C3=CSC4=C3C(=C(C(=O)N4)C#N)O)O + CC(C)C[C@H](NC(=O)[C@H](Cc1ccccc1)NC(=O)c1cnccn1)B(O)O [Bortezomib] (partner 0.002 µM)
How it was run: (§1)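 Nuclei were stained with Hoechst during a one-step fixation (final 0.05% Triton X-100, 1% formaldehyde, 1 ug/ml Hoechst) carried out 5 days after dosing, then counted on 4× images. The cells, lung cancer lines in 1536-well plates, had been dosed by pin tool the day after seeding with one drug alone or a fixed anchor-drug dose plus five library-drug doses (not always all listed) in √10 steps. Relative viability is the nuclei count in treated wells divided by that in vehicle wells, and each value is the median of duplicate plates.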

[2] = compound: C1=CC=C(C(=C1)C2=CC=C(C=C2)C3=CSC4=C3C(=C(C(=O)N4)C#N)O)O + COc1cc2c(Oc3ccc(NC(=O)C4(C(=O)Nc5ccc(F)cc5)CC4)cc3F)ccnc2cc1OCCCN1CCOCC1 [Foretinib] (partner 0.25 µM)
How it was run: as §1

[3] = compound: CC1=CN2C(=O)C=C(N=C2C(=C1)C(C)NC3=CC=CC=C3)N4CCOCC4 [TGX 221] + Cc1cc(Nc2cc(N3CCN(C)CC3)nc(Sc3ccc(NC(=O)C4CC4)cc3)n2)n[nH]1 [Tozasertib] (partner 0.1 µM)
How it was run: as §1

[4] = compound: O=C(CCCCCCNC(=O)c1cnc(N(c2ccccc2)c2ccccc2)nc1)NO [Ricolinostat] + O=C(CCCCCCC(=O)Nc1ccccc1)NO [Vorinostat] (partner 1 µM)
How it was run: as §1

Row | Cell Line | relative viability ([1]; first compound 0.08 µM) | relative viability ([1]; first compound 0.253 µM) | relative viability ([1]; first compound 0.8 µM) | relative viability ([1]; first compound 2.53 µM) | relative viability ([1]; first compound 8 µM) | relative viability ([2]; first compound 0.08 µM) | relative viability ([2]; first compound 0.253 µM) | relative viability ([2]; first compound 0.8 µM) | relative viability ([2]; first compound 2.53 µM) | relative viability ([2]; first compound 8 µM) | relative viability ([3]; first compound 0.08 µM) | relative viability ([3]; first compound 0.253 µM) | relative viability ([3]; first compound 0.8 µM) | relative viability ([3]; first compound 2.53 µM) | relative viability ([3]; first compound 8 µM) | relative viability ([4]; first compound 0.08 µM) | relative viability ([4]; first compound 0.253 µM) | relative viability ([4]; first compound 0.8 µM) | relative viability ([4]; first compound 2.53 µM)
1 | HCC-366 | 1.04 | 1.14 | 1.34 | 0.682 | 0.642 | 1.03 | 0.974 | 0.949 | 0.992 | 0.959 | 0.0834 | 0.113 | 0.283 | 0.0517 | 0.0636 | 0.296 | 0.327 | 0.313 | 0.165
2 | HCC-827 | 0.967 | 1.05 | 1 | 1.08 | 1.07 | 1.11 | 1.04 | 1.04 | 1.06 | 0.969 | 0.414 | 0.436 | 0.424 | 0.401 | 0.349 | 0.768 | 0.86 | 0.574 | 0.915
3 | HOP-62 | 0.805 | 0.632 | 0.783 | 0.742 | 0.505 | 1.15 | 1.01 | 1.17 | 1.28 | 1 | 0.372 | 0.416 | 0.34 | 0.387 | 0.316 | 0.572 | 0.537 | 0.478 | 0.292
4 | IA-LM | 0.672 | 1.13 | 0.879 | 1.01 | 0.58 | 0.893 | 1.35 | 1.01 | 1.41 | 1.14 |  |  |  |  |  |  | 0.96 | 0.8 | 0.647
5 | LC-2-ad | 1 | 1.09 | 1.02 | 1 | 1.01 | 0.877 | 1.06 | 0.96 | 0.968 | 0.753 | 0.451 | 0.479 | 0.454 | 0.402 | 0.396 | 0.68 | 0.67 | 0.64 | 0.458
6 | LCLC-97TM1 | 0.344 | 0.44 |  | 0.572 | 0.343 | 0.827 | 1.16 | 1.01 | 1.03 | 0.91 | 0.214 | 0.179 | 0.191 | 0.239 | 0.143 | 0.487 | 0.556 | 0.628 | 0.333
7 | LCLC-103H | 0.99 | 1.13 | 1.05 | 1.13 | 1.15 | 0.78 | 0.735 | 0.93 | 0.698 | 0.587 | 0.409 | 0.466 | 0.465 | 0.434 | 0.354 | 0.662 | 0.738 | 0.639 | 0.522
8 | LK-2 |  |  |  |  |  |  | 1.01 | 1.37 | 1.3 | 1.7 | 0.203 | 0.202 | 0.182 | 0.187 | 0.161 | 0.393 | 0.311 | 0.261 | 0.192
9 | LOU-NH91 | 0.428 | 0.496 | 0.449 | 0.515 | 0.443 | 0.942 | 0.96 | 0.92 | 0.914 | 0.868 | 0.713 | 0.653 | 0.697 | 0.675 | 0.562 |  | 0.955 | 0.782 | 0.755
10 | NCI-H358 |  |  |  |  |  | 0.672 | 0.558 | 0.697 | 0.624 | 0.53 | 0.097 | 0.0915 | 0.103 | 0.108 | 0.0944 | 0.599 | 0.633 | 0.482 | 0.34
11 | NCI-H522 |  |  |  |  |  |  |  |  |  |  | 0.52 | 0.559 | 0.575 | 0.502 | 0.513 | 0.836 | 0.919 | 0.855 | 0.628
12 | NCI-H1299 | 1.07 | 1.04 | 0.995 | 1 | 0.975 | 1.1 | 1.07 | 1.09 | 1.11 | 1.17 |  |  |  |  |  |  |  |  | 
13 | NCI-H1395 |  |  |  |  |  | 0.867 | 0.964 | 0.991 | 1.01 | 1 | 0.712 | 0.697 | 0.713 | 0.603 | 0.569 |  | 0.833 | 0.468 | 0.674
14 | NCI-H1563 | 0.543 | 0.953 | 0.909 | 0.785 | 0.759 | 0.972 | 0.862 | 0.947 | 0.861 | 0.927 |  |  |  |  |  |  |  |  | 
15 | NCI-H1623 |  |  |  |  |  | 0.915 | 0.971 | 0.864 | 0.889 | 0.798 | 0.446 | 0.404 | 0.472 | 0.466 | 0.419 |  |  |  | 
16 | NCI-H1648 |  |  |  |  |  |  |  |  |  |  | 0.422 |  | 0.563 | 0.406 | 0.45 |  | 0.483 | 0.458 | 0.254
17 | NCI-H1703 | 0.28 | 0.395 | 0.289 | 0.301 | 0.38 | 0.284 | 0.355 | 0.35 | 0.363 | 0.409 |  |  |  |  |  |  |  |  | 
18 | NCI-H1793 |  |  |  |  |  | 0.623 | 0.673 | 0.691 | 0.595 | 0.555 | 0.311 | 0.239 | 0.244 | 0.16 | 0.166 | 0.519 | 0.72 | 0.566 | 0.726
19 | NCI-H1944 |  |  |  |  |  | 0.88 | 0.863 | 0.987 | 0.935 | 0.904 | 0.237 | 0.223 | 0.241 | 0.244 | 0.2 | 0.493 | 0.539 | 0.488 | 0.422
20 | NCI-H2170 |  |  |  |  |  | 0.951 | 1.03 | 0.988 | 1.03 | 0.932 | 0.658 | 0.666 | 0.626 | 0.731 | 0.67 | 0.774 | 0.744 | 0.737 | 0.501
21 | NCI-H2342 |  |  |  |  |  | 1.01 | 1.1 | 1.1 | 1.03 | 0.856 | 0.422 | 0.484 | 0.6 | 0.547 | 0.447 | 0.693 | 0.694 | 0.757 | 0.745
22 | SK-MES-1 |  |  |  |  |  | 0.885 | 1.02 | 0.905 | 0.852 | 0.837 | 0.897 | 0.992 | 0.916 | 0.957 | 0.796 | 0.912 | 1.03 | 1.07 | 0.932
23 | SW 900 |  |  |  |  |  | 0.914 | 0.519 | 0.923 | 0.634 | 0.62 | 0.657 | 0.749 | 0.824 | 0.636 | 0.453 | 0.446 | 0.61 | 0.483 | 0.327
